Entries after “also recorded” stand apart in the source; their conditions may differ.
Assays:
[1] = Water solubility (statement); assay type: physicochemical; details: for injection application
INa = INa in guinea pig ventricular myocytes; assay type: cell-based; details: 30 and 100 μM
Procedure: (§1) Guinea pigs of either gender (250-300 g) were sacrificed by cervical dislocation after anesthetization with pentobarbital (40 mg kg, i.p.). The procedure related to the use of animals in this invention was approved by the Animal Care and Use Committee for Teaching and Research of University of Hong Kong in accordance with the Guide for the Care and Use of Laboratory Animals (Institute of Laboratory Animal Resources, Commission on Life Sciences, National Research Council, 1996). Left atrial and ventricular myocytes from guinea pig hearts were enzymatically dissociated by the procedure described previously (Li et al., 2002a) and the isolated myocytes were kept in the K^+ storage medium.
The Ca^2+-free cardioplegic solution for specimen transport contained (in mM) 50 KH2PO4, 8 MgSO4, 5 adenosine, 10 HEPES, 140 glucose, 100 mannitol, 10 taurine, pH was adjusted to 7.3 with KOH. Tyrode solution contained (in mM) 140 NaCl, 5.4 KCl, 1 MgCl2, 1 CaCl2, 0.33 NaH2PO4, 10 HEPES, 10 glucose, pH was adjusted to 7.4 with NaOH. […] INa was recorded under conditions of K^+-free and a symmetrical Na^+ (5 mM) in pipette and superfusion solutions as described previously (Li at al., 2002a).
The whole-cell patch-clamp technique was used for electrophysiological recording. […] Membrane currents were recorded in voltage-clamp mode using an EPC-9 amplifier and Pulse software (HEKA, Lambrecht, Germany). […]

anesthetized dogs [2] = test: Experimental vagotonic AF in anesthetized dogs; assay type: in vivo, dog; details: for summarized anti-AF efficacy: vehicle 0%; for animals in which sustained AF was not observed: vehicle: sustained AF in 100%; for prevention of AF induction, in words: 5 and 10 mg/kg intraduodenal, P<0.05 vs vehicle
Procedure: Sustained vagotonic AF was generated in anesthetized dogs by introducing two MAP catheters respectively into the right atrium and the left ventricle along with stimulation of the divided bilateral vagal nerves in the neck. […] Ventricular pacing was performed with 2 ms voltage pulses (2.5 Hz, 150% diastolic threshold) when vagal nerves were continuously stimulated. AF was generated by the BCL 100-ms S1 followed by S2, lasting for 10 min. […] The sustained AF could be repeatedly generated and terminated by stopping vagal stimulation. AF incidence and AF duration were recorded before and at different time points (0.5, 1, 1.5, 2, 3, and 4h) after intraduodenal administration of drugs.
AF was induced by S1-S2 stimulation at 100 ms BCL with bilateral vagal stimulation (see Methods & FIG. 12) at certain time points during the 0.5 to 4 h period following intraduodenal administration. AF lasted for 10 min and terminated once vagal stimulation was stopped. No AF occurrence or shortened AF duration during the continuous vagal stimulation were considered to represent prevention of AF.

IK1 = IK1 in guinea pig ventricular myocytes; assay type: cell-based; details: 30 and 100 μM
Procedure: as §1
The whole-cell patch-clamp technique was used for electrophysiological recording. Borosilicate glass electrodes (1.2-mm OD) were pulled with a Brown-Flamming puller (model P-97, Sutter Instrument Co, Novato, Calif., USA) and had tip resistances of 2-3 MΩ when filled with pipette solution. Membrane currents were recorded in voltage-clamp mode using an EPC-9 amplifier and Pulse software (HEKA, Lambrecht, Germany). A 3-M KCl-agar salt bridge was used as reference electrode. The tip potentials were compensated before the pipette touched the cell. […] The cell membrane capacitance (pF) was directly measured using the lock-in module of the Pulse software, and used for normalizing the current in individual cells. […]

Kv1.5 = molecular target: T1, Kv1.5 (Homo sapiens, UniProt P22460); test: Kv1.5 channel block in stably expressing HEK 293 cells; assay type: cell-based; details: HEK 293 cells stably expressing Kv1.5, Table 3; read-out: Kv1.5 (IC50)
T1 construct: expressed in transfected cells
T1 sequence (P22460 whole entry): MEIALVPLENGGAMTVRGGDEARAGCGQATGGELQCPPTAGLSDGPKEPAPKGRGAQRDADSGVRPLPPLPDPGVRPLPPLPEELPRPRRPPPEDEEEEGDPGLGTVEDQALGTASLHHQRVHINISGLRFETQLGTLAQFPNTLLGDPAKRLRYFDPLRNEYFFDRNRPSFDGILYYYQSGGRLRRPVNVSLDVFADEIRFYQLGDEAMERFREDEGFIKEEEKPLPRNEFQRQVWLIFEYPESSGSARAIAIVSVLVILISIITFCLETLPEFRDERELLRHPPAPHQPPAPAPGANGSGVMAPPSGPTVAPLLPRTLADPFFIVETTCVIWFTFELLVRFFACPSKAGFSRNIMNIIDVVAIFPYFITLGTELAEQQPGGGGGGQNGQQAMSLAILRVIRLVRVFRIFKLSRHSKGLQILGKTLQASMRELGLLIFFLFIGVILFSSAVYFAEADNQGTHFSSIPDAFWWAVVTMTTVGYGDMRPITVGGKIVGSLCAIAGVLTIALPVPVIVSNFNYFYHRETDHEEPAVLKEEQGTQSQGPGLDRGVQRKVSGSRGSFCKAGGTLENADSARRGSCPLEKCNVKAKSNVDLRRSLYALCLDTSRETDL
Procedure: (§2) The established HEK 293 cell lines stably expressing the hERG channel gene, Kv1.5 (Tang et al., 2007), or recombinant human cardiac KCNQ1/KCNE1 channel current (IKs) (Dong et al., 2006) was maintained separately in Dulbecco's modified eagle medium (Invitrogen) supplemented with 10% fetal bovine serum and containing 400 μg/ml G418 (for hERG or Kv1.5 channels) or 100 μg/ml hygromycin (for IKs).
(§3) The whole-cell patch-clamp technique was used for electrophysiological recording. Borosilicate glass electrodes (1.2-mm OD) were pulled with a Brown-Flamming puller (model P-97, Sutter Instrument Co, Novato, Calif., USA) and had tip resistances of 2-3 MΩ when filled with pipette solution. Membrane currents were recorded in voltage-clamp mode using an EPC-9 amplifier and Pulse software (HEKA, Lambrecht, Germany). A 3-M KCl-agar salt bridge was used as reference electrode. The tip potentials were compensated before the pipette touched the cell. After a giga-ohm seal was obtained, the cell membrane was ruptured by gentle suction to establish the whole-cell configuration. The cell membrane capacitance (pF) was directly measured using the lock-in module of the Pulse software, and used for normalizing the current in individual cells. The series resistance (Rs) was 3-5 MΩ and was compensated by 50-70% to minimize voltage errors. Perforated patch configuration was used for recording action potential in human atrial cells and IKs in HEK 293 cells as described previously (Li et al., 2002b; Dong et al., 2006). Current signals were low-pass filtered at 5 kHz and stored on the hard disk of an IBM compatible computer.
Other derivatives/analogs studied have no effect or a week inhibitory effect on Kv1.5.

anesthetized dogs [3] = test: In vivo electrophysiology (atrial ERP, QTc) in anesthetized dogs; parameters: species or system dog; details: 5 mg/kg intraduodenal, BCL 200 ms, pre-treatment (baseline)
Procedure: Adult mongrel dogs (12-15 kg) were anesthetized with pentobarbital (30 mg/kg i.v.), supplemented during the experiment when needed. The animal was intubated and ventilated with room air. Body temperature was maintained at 37-38° C. with a temperature control system. The left femoral vein was cannulated for maintenance of anesthesia and introducing the mono-phasic action potential (MAP) recording- and pacing-catheters (Boston Scientific Ltd) to the right atrium. The vagus nerves were isolated and divided in the neck. […] A left thoracotomy was performed in the fourth intercostal space, and the pericardium was incised to provide access to the left atrium for introducing the MAP catheter. The catheters were used for recording MAPs of right and left atria, respectively, and for measurement of effective refractory period (ERP). […] A ligation was made at the pylorus with a thick cotton thread to prevent the possible back flow of the duodenum content.
Following a 30-min equilibration period and measurement of atrial excitation threshold with 2-ms duration of stimuli, atrial ERP was determined using a train of 8 basic stimuli (S1, twice-diastolic threshold) followed by an identical premature stimulus (S2). The basic cycle lengths (BCL) of 200, 250 and 300 ms were applied in both right and left atria. S2 was initially delivered late in diastole in 5-ms decrements until a response was not elicited by the S2 indicated on the MAP recording. The ERP was defined as the longest S1-S2 interval failing a propagated response, and the procedure was repeated for three times for each measurement. MAP, ECG and blood pressure signals were continuously monitored and stored on an IBM compatible PC computer using a multiple channels data acquisition system (RM-6280C, Chengdu Instrument Ltd, Chendu, China).
The ERP measurement was then repeated every hour post drug administration for 6 hours. Excitation threshold of both right and left atria was verified before ERP each measurement. • 1.7.2.
The ERPs were determined in anesthetized dogs using the BCLs of 300, 250, and 200 ms by introducing S1-S2 via a programmed cardiac stimulator (FIG. 10A).

IKur = molecular target: T2, IKur (Homo sapiens, UniProt P22460); test: IKur in human atrial myocytes, whole-cell patch clamp; assay type: cell-based; details: for inhibition of voltage-dependent IKur (tail and step currents), in words: 3, 10 and 30 μM
T2 construct: endogenous in cells; host or cells: human right atrial myocytes, freshly isolated
T2 sequence (P22460 whole entry): as above
Procedure: Atrial cells were isolated from specimens of human right atrial appendage obtained from patients (56.1±4.7 years old) undergoing coronary artery bypass grafting. […] After excision, the samples were quickly immersed in oxygenated, normally Ca^2+-free cardioplegic solution for transport to the laboratory. […] Briefly, the atrial tissue was minced, and gently agitated by continuous bubbling with 100% O2 in a Ca^2+-free Tyrode solution for 15 min (5 min at a time in fresh solutions), and then incubated for 50 min in a similar solution containing 150-200 U/ml collagenase (CLS II, Worthington Biochemical, Freehold, N.J., USA), 0.2 mg/ml protease (type XXIV, Sigma-Aldrich Chemical, St Louis, Mo., USA.) and 1 mg/ml bovine serum albumin (Sigma-Aldrich). After then, the chunks were re-incubated in a fresh enzyme solution of the same composition but no protease. The quantity and quality of isolated cells were monitored under a microscope. When the cell yield appeared optimal, the chunks were suspended in a high K medium containing (mM) 10 KCl, 120 K-glutamate, 10 KH2PO4, 1.8 MgSO4, 10 taurine, 10 HEPES, 0.5 EGTA, 20 glucose, 10 mannitol, pH was adjusted to 7.3 with KOH and gently blown with a pipette. The isolated myocytes were kept at room temperature in the medium at least 1 h before use.
The Ca^2+-free cardioplegic solution for specimen transport contained (in mM) 50 KH2PO4, 8 MgSO4, 5 adenosine, 10 HEPES, 140 glucose, 100 mannitol, 10 taurine, pH was adjusted to 7.3 with KOH. Tyrode solution contained (in mM) 140 NaCl, 5.4 KCl, 1 MgCl2, 1 CaCl2, 0.33 NaH2PO4, 10 HEPES, 10 glucose, pH was adjusted to 7.4 with NaOH. The pipette solution contained (in mM) 20 KCl, 110 K-aspartate, 1 MgCl2, 10 HEPES, 5 EGTA, 0.1 GTP, 5 Na2-phosphocreatine, and 5 Mg2-ATP, pH was adjusted to 7.2 with KOH. For Ito and IKur recording, BaCl2 (200 μM) and CdCl2 (200 μM) were added to the superfusion to block IK1 and ICa.L. Atropine (1.0 μM) was used to minimize possible IK.ACh contamination during the current recording. For ICa.L recording, K^+ in pipette and Tyrode solution was replaced by CsCl. INa was recorded under conditions of K^+-free and a symmetrical Na^+ (5 mM) in pipette and superfusion solutions as described previously (Li at al., 2002a).
A small aliquot of the solution containing the isolated cells was placed in an open perfusion chamber (1-ml) mounted on the stage of an inverted microscope. […]
The whole-cell patch-clamp technique was used for electrophysiological recording. […] Membrane currents were recorded in voltage-clamp mode using an EPC-9 amplifier and Pulse software (HEKA, Lambrecht, Germany). […] The cell membrane capacitance (pF) was directly measured using the lock-in module of the Pulse software, and used for normalizing the current in individual cells.

[4] = molecular target: IKs channels (hKCNQ1/hKCNE1) (Homo sapiens, UniProt P51787); test: IKs in HEK 293 cells stably expressing hKCNQ1/hKCNE1; assay type: cell-based; details: for inhibition of IKs amplitude, in words: 30 μM
Procedure: as §2, §3

Kunmin mice = test: Acute toxicity in mice; assay type: in vivo; details: oral, two-week observation
Description: The animals were observed closely with a two-week duration for death number and activity.

hERG channels = hERG channels (Homo sapiens, UniProt Q12809); test: cell-based
Chain of hERG channels (Q12809 whole entry): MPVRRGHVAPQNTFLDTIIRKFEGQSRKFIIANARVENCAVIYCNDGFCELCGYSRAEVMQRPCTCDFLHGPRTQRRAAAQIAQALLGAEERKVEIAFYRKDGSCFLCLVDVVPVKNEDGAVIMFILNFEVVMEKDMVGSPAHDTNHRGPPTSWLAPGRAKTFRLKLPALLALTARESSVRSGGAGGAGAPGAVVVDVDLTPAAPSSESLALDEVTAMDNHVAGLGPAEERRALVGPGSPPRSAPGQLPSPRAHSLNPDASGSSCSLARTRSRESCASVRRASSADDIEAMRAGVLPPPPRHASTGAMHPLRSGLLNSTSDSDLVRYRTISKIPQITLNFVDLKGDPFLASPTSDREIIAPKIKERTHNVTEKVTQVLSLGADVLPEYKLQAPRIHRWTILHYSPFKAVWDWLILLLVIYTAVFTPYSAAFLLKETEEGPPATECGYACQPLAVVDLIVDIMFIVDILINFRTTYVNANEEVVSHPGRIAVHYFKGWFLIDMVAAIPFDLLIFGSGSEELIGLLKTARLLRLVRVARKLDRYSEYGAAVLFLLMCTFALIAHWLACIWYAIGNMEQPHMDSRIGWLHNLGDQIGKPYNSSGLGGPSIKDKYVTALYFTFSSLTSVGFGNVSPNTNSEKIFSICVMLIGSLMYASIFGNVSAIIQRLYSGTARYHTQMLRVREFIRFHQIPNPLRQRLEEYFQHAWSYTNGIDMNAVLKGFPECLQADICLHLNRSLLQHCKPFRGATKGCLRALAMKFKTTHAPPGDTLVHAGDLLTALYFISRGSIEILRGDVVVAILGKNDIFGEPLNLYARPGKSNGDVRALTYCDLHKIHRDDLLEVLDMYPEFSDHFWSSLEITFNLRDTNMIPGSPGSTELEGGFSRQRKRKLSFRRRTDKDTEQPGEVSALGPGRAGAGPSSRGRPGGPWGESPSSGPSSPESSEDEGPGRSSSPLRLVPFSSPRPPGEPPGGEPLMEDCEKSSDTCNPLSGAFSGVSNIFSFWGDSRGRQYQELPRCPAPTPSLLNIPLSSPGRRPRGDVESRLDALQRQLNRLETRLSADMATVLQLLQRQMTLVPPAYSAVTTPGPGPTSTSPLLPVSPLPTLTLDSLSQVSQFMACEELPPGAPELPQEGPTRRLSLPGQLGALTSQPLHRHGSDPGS

With `COc1ccc(-c2cc(=O)c3c(O)cc(O)cc3o2)cc1` [Acacetin, 5,7-dihydroxy-4′-methoxyflavone] the “water solubility, in words” value [1] was “not water soluble”, the “effect on INa, in words” value (INa) was “no effect; also recorded: no inhibition” and the “effect on INa, in words” value (INa; listed as acacetin) was “no effects”. For the same compound, the “summarized anti-AF efficacy” value (anesthetized dogs [2]; 2.5 mg/kg intraduodenal) was 50%, the “animals in which sustained AF was not observed” value (anesthetized dogs [2]; 2.5 mg/kg intraduodenal) was 50% and the “summarized anti-AF efficacy” value (anesthetized dogs [2]; 5 mg/kg intraduodenal) was 85.7%. For the same compound, the “animals in which sustained AF was not observed” value (anesthetized dogs [2]; 5 mg/kg intraduodenal) was 57%, the “summarized anti-AF efficacy” value (anesthetized dogs [2]; 10 mg/kg intraduodenal) was 85.7% and the “animals in which sustained AF was not observed” value (anesthetized dogs [2]; 10 mg/kg intraduodenal) was 57%. The “prevention of AF induction, in words” value (anesthetized dogs [2]) was “significantly prevented AF”, the “prevention of AF induction, in words” value (anesthetized dogs [2]; listed as acacetin) was “significantly prevented AF induction” and the “incidence of AF, in words” value (anesthetized dogs [2]; acacetin 2.5, 5, 10 mg/kg, sotalol 5 mg/kg, 1.5-2.5 h after intraduodenal administration) was “reduced the incidence of AF”. For the same compound, the “effect on IK1, in words” value (IK1) was “no effect; also recorded: no inhibition”, the “effect on IK1, in words” value (IK1; listed as acacetin) was “no effects” and the IC50 (Kv1.5) was 3.4 µM. The “right atrial ERP (ms), BCL 200 ms” value (anesthetized dogs [3]) was 87.2 ± 7.9 ms, the “inhibition of voltage-dependent IKur (tail and step currents), in words” value (IKur) was “substantially inhibited” and the “inhibition of voltage-dependent IKur (tail and step currents), in words” value (IKur; listed as acacetin) was “suppressed”. For the same compound, the “effect on IKur in human atrial myocytes, in words” value (IKur; extract fraction / isolated compound, concentration not given) was “blocking effect”, the IC50 (IKur; human atrial myocytes, +40 mV, 0.3 to 100 μM, Hill equation fit, read-out: IC50 for inhibiting IKur) was 3.2 µM and the “inhibition of IKs amplitude, in words” value [4] was “significantly inhibited”. The “inhibition of IKs amplitude, in words” value ([4]; listed as acacetin) was “inhibited”, the IC50 ([4]; HEK 293 cells, IKs.step, +40 mV, read-out: IC50 for inhibiting IKs) was 81.4 µM and the “abnormal activity compared to vehicle-control animals” value (Kunmin mice; 0.3 g/kg three times) was “no abnormal activity”. The animal death (Kunmin mice; 900 mg/kg (0.3 g/kg three times at intervals of 1.5 h), 900 mg/kg) was “no animal death” and the IC50 (hERG channels) was 32.4 µM.

Reference: patent US7816400B2 (The University of Hong Kong, priority 2007, dated 2010)
